We go through two compounds from US9861640B2, “Medicament for treatment of Alzheimer's disease” (KEMPHYS LTD., priority 2013, dated 2018).

Test [1] concerns IL-4. In words: IL-4 sandwich ELISA of hippocampus, correlation with MWM. It is filed as in vivo, mouse. Particulars: APP23 mice; day 18; P=0.096 (HX630), P=0.087 (Am80/HX630).
For test [2], the system named is rat primary microglia. In words: Clearance of 125I-labeled oligomeric Aβ1-42 by rat primary microglia. It counts as cell-based. Particulars: 5 μM each 48 h, then 6 h with 125I-o-Aβ1-42 1 μg/ml, vs vehicle-treated cells. The text has this:
Primary microglia (type 1) were harvested from primary mixed glial cell cultures prepared from neonatal Wistar rat pups, as previously reported. Mouse microglial cell line MG5 and mouse glial cell line A1 were maintained as previously described. Mouse neuroblastoma cell line N1E-115 and Neuro 2a (American Type Culture Collection, Manassas, Va., USA) were maintained in Dulbecco's modified Eagle's medium (DMEM) supplemented with 10% fetal bovine serum (FBS), 20 U/ml penicillin (Invitrogen, Gaithersburg, Md., USA), and 20 μg/ml streptomycin (Invitrogen). Primary rat microglia were treated with Am80 (5 μM) and/or HX630 (5 μM) in the presence and absence of GW9662 (10 μM) for 48 h in Eagle's MEM supplemented with 10% FBS and 0.2% glucose. MG5 cells and A1 cells were treated with Am80 (5 μM) and/or HX630 (5 μM) for 48 h in DMEM containing 10% FBS. N1E-115 cells were treated with Am80 (5 μM) and/or HX630 (5 μM) for 5 days in DMEM containing 2% FBS.
^125I-Labeled oligomeric Aβ1-42 (o-Aβ1-42) was prepared as described. Cells were cultured in 24-well plates for 48 h in Eagle's MEM supplemented with 10% FBS in the presence or absence of Am80 (5 μM) and HX630 (5 μM). After the 48-h treatment, the cells were washed twice with labeling medium (DMEM containing 3% BSA) and then incubated with ^125I-labeled o-Aβ1-42 for 6 h at 37° C. Following the 6-h incubation, medium was removed from each well, and soluble radioactivity in TCA (degraded and extracellularly released peptide fragments) was determined as an index of Aβ degradation in the medium as described previously. The Aβ degradation activity may thus include both receptor-mediated phagocytic activity and extracellular protease-mediated degradation. Cells were washed three times with PBS, then lysed with 0.4 ml of 0.1 M NaOH for 30 min at 37° C., and cell-associated (including cell-incorporated) radioactivity and cell proteins were determined with an autogamma counter and the BCA Protein Assay Reagent (Pierce), respectively. We could not determine the activity of IDE-dependent degradation in this medium, because the incubation medium was replaced with labeling medium prior to incubation with ^[…].

In test [3] the test system is CD36. Kind of test: Immunoblot of CD36 in brains of APP23 mice. It counts as in vivo, mouse. The note with it: Am80 0.5 and/or HX630 5 mg/kg/d, day 18, whole-cell extracts. On the procedure: (§1) APP23 mice begin forming amyloid deposits when they are 6 months old, but memory deficits in the MWM test appear quite early (before 3 months of age). Here, we used 8.5-month-old male APP23 mice and their WT littermates (C57BL/6J). We used stratified random sampling to divide mice (four to six per cage) into four groups to equalize the mean body weight of the study groups: mice given 0.5 mg/kg/d Am80, those given 5 mg/kg/d HX630, those given the mixture of 0.5 mg/kg/d Am80 and 5 mg/kg/d HX630, and those given the vehicle. Am80 and HX630 were suspended in 0.5% (w/v) carboxymethylcellulose solution and were orally administered to mice at 0.5 mg/kg (Am80) or 5 mg/kg (HX630) for 17 consecutive days (once daily at 18:00). Control animals received the same volume of 0.5% (w/v) carboxymethylcellulose solution orally, without the other compounds. We set the 0.5 mg/kg/d dose for Am80 on the basis that this had been found effective in other in vivo studies, such as those by Kawahara et al. and Ishido and Shudo [37]. Higher doses of Am80 (3 mg/kg/d and 6 mg/kg/d) were also orally administered to mice for 17 consecutive days. Animals were weighed once a week. Mice were subjected to behavioral testing on days 15-18 of the first oral administration of the compounds (at 19:00-23:00). On days 15-17 (not day 18), animals received the compounds at 24:00, after behavioral testing. […]

Test [4] relates to IDE. In words: Immunoblot of IDE in brains of APP23 mice. The note with it: day 18, vs vehicle-treated APP23 mice, P<0.05. It is filed as in vivo, mouse. On the procedure: as §1
Test [5] deals with APP23 mice. The note with it: earlier study [15]; oral Am80 0.5 mg/kg/d for 14 weeks; 5-month-old APP23 mice; cited from earlier work.
The subject of test [6] is RXRs. The note with it: cited from earlier work.

Consider `CN1c2ccccc2N=C(c2ccc(C(=O)O)cc2)c2cc3c(cc21)C(C)(C)CCC3(C)C` [HX630, 4-[5H-2,3-(2,5dimethyl-2,5-hexano)-5-methyldibenzo[b,e]-diazepin-11-yl]benzoic acid], for which, in test [1], the “hippocampal IL-4 levels” value is “the increase was statistically insignificant”. Besides, in test [2], the “degradation activity towards 125I-labeled oligomeric Aβ1-42” value is on record as “increased”. Moreover, the “CD36 protein level in brain (immunoblot)” value in test [3] is reported as “increased”. Moreover, the “IDE protein level in the membrane-bound fraction” value in test [4] was “increased significantly”.

In the case of `CC1(C)CCC(C)(C)c2cc(NC(=O)c3ccc(C(=O)O)cc3)ccc21` [Am80, 4-{(5,6,7,8-tetrahydro-5,5,8,8-tetramethyl-2-naphthalenyl)carbamoyl}benzoic acid], in test [5], the behavioral benefits entry was “did not detect behavioral benefits”. Further, the “binding affinity for RXRs (and RARγ)” value in test [6] was “little or no binding affinity”.
